Laboratory results reported in ChEMBL document CHEMBL3351699, “Diarylthiazole: an antimycobacterial scaffold potentially targeting PrrB-PrrA two-component system” (J Med Chem, 2014).
Converted amounts (≈) assume the structure as drawn.

Tests used:
[1] = system: Mycobacterium tuberculosis; test: Antimicrobial activity against Mycobacterium tuberculosis H37Rv ATCC 27294 assessed as growth inhibition after 5 days by microdilution method; assay type: functional; conditions: H37Rv ATCC 27294, 120 h
[2] = Solubility of the compound; assay type: physicochemical
[3] = system: Mycobacterium tuberculosis; test: Bactericidal activity against Mycobacterium tuberculosis H37Rv ATCC 27294 after 5 days by microdilution method; assay type: functional; conditions: H37Rv ATCC 27294, 120 h
[4] = system: Mycobacterium tuberculosis; test: Ratio of MBC for Mycobacterium tuberculosis H37Rv ATCC 27294 to MIC for Mycobacterium tuberculosis H37Rv ATCC 27294; assay type: functional
[5] = system: Mycobacterium tuberculosis; test: Antimicrobial activity against clinical isolate Mycobacterium tuberculosis H37Rv ATCC 27294 assessed as growth inhibition after 7 days by turbidometry; assay type: functional; conditions: H37Rv ATCC 27294, 168 h
[6] = system: Mycobacterium tuberculosis; test: Antimicrobial activity against clinical isolate Mycobacterium tuberculosis ATCC25618 assessed as growth inhibition after 7 days by turbidometry; assay type: functional; conditions: ATCC25618, 168 h
[7] = system: Mycobacterium tuberculosis; test: Antimicrobial activity against clinical isolate Mycobacterium tuberculosis Erdman assessed as growth inhibition after 7 days by turbidometry; assay type: functional; conditions: 168 h
[8] = system: Mycobacterium tuberculosis; test: Antimicrobial activity against clinical isolate Mycobacterium tuberculosis Beijing assessed as growth inhibition after 7 days by turbidometry; assay type: functional; conditions: 168 h
[9] = system: Mycobacterium tuberculosis; test: Antimicrobial activity against clinical isolate Mycobacterium tuberculosis Harlingen assessed as growth inhibition after 7 days by turbidometry; assay type: functional; conditions: 168 h
[10] = system: Mycobacterium tuberculosis; test: Antimicrobial activity against clinical isolate Mycobacterium tuberculosis ATCC35811 assessed as growth inhibition after 7 days by turbidometry; assay type: functional; conditions: ATCC35811, 168 h
[11] = system: Mycobacterium tuberculosis; test: Antimicrobial activity against clinical isolate Mycobacterium tuberculosis DKU76 assessed as growth inhibition after 7 days by turbidometry; assay type: functional; conditions: DKU76, 168 h
[12] = system: Mycobacterium tuberculosis; test: Antimicrobial activity against clinical isolate Mycobacterium tuberculosis DKU97A assessed as growth inhibition after 7 days by turbidometry; assay type: functional; conditions: 168 h
[13] = system: Mycobacterium tuberculosis; test: Antimicrobial activity against clinical isolate Mycobacterium tuberculosis DKU211 assessed as growth inhibition after 7 days by turbidometry; assay type: functional; conditions: DKU211, 168 h
[14] = system: Mycobacterium tuberculosis; test: Antimicrobial activity against clinical isolate Mycobacterium tuberculosis DKU220 assessed as growth inhibition after 7 days by turbidometry; assay type: functional; conditions: DKU220, 168 h
[15] = system: Mycobacterium tuberculosis; test: Antimicrobial activity against clinical isolate Mycobacterium tuberculosis JAL assessed as growth inhibition after 7 days by turbidometry; assay type: functional; conditions: 168 h

CCCc1cc(-c2nc(-c3ccc(C(F)(F)F)cc3)cs2)ccn1
MIC80 [1]: 1 µg/mL (≈ 2.87 µM)

CN1CCC(c2nc(-c3ccc(Cl)cc3)cs2)CC1
MIC80 [1]: > 32 µg/mL

CCCc1cc(-c2nc(-c3ccc(C(=O)O)cc3)cs2)ccn1
MIC80 [1]: 16 µg/mL (≈ 49.3 µM)

CCCc1cc(-c2nc(-c3cccc(C(F)(F)F)c3)cs2)ccn1
MIC80 [1]: 0.5 µg/mL (≈ 1.44 µM)

CCCc1cc(-c2nc(-c3cccc(F)c3)cs2)ccn1
MIC80 [1]: 1 µg/mL (≈ 3.35 µM)

CCCc1cc(-c2nc(-c3ccc(Cl)cc3)c(C)s2)ccn1
MIC80 [1]: 4 µg/mL (≈ 12.2 µM)

CCCc1cc(-c2nc(-c3ccc(Cl)cc3)c(C(=O)O)s2)ccn1
MIC80 [1]: > 32 µg/mL

CCCc1cc(-c2nc(-c3ccc(C(=O)NS(C)(=O)=O)cc3)cs2)ccn1
MIC80 [1]: 32 µg/mL (≈ 79.7 µM)

CCCc1cc(-c2nc(-c3ccccc3C(F)(F)F)cs2)ccn1
MIC80 [1]: > 32 µg/mL

CCCc1cc(-c2nc(-c3ccc(OCCN(C)C)cc3)cs2)ccn1
MIC80 [1]: 16 µg/mL (≈ 43.5 µM) | solubility [2]: 279 µM (≈ 102 µg/mL)

CCCc1cc(-c2csc(-c3ccnc(CCC)c3)n2)ccn1
MIC80 [1]: 0.25 µg/mL (≈ 0.773 µM)

CCc1cc(-c2ncc(-c3ccnc(OC)c3)s2)ccn1
MBC [3]: 0.5 µg/mL (≈ 1.68 µM)

CCCc1cc(-c2nc(-c3ccc(C)cc3)cs2)ccn1 [FATOSTATIN]
MIC80 [1]: 1 µg/mL (≈ 3.4 µM) | solubility [2]: 0.4 µM (≈ 0.118 µg/mL)

CCCc1cc(-c2nc(-c3ccc(Cl)cc3)cs2)ccn1
MIC80 [1]: 1 µg/mL (≈ 3.18 µM) | MBC [3]: 2 µg/mL (≈ 6.35 µM)

CCCc1cc(-c2nc(-c3ccc(F)cc3)cs2)ccn1
MIC80 [1]: 1 µg/mL (≈ 3.35 µM)

CCCc1cc(-c2nc(-c3ccc(OCCN4CCCC4)cc3)cs2)ccn1
MIC80 [1]: 4.9 µg/mL (≈ 12.5 µM) | solubility [2]: 155 µM (≈ 60.8 µg/mL) | MBC [3]: 4.9 µg/mL (≈ 12.5 µM) | Ratio [4]: 1

CCc1cc(-c2nc(-c3ccc(Cl)cc3)cs2)ccn1
MIC80 [1]: 2 µg/mL (≈ 6.65 µM)

CCCc1cc(-c2nc(-c3ccnc(OCC)c3)cs2)ccn1
MIC80 [1]: 0.1 µg/mL (≈ 0.307 µM) | MBC [3]: 0.1 µg/mL (≈ 0.307 µM)

CCCc1cc(-c2nc(-c3ccnc(OCCN(C)C)c3)cs2)ccn1
MIC80 [1]: 8 µg/mL (≈ 21.7 µM)

CCCc1cc(-c2nc(-c3ccc(OCC4CC4)cc3)cs2)ccn1
MIC80 [1]: 0.25 µg/mL (≈ 0.713 µM) | MIC80 [5]: 0.5 µg/mL (≈ 1.43 µM) | MIC80 [6]: 0.5 µg/mL (≈ 1.43 µM) | MIC80 [7]: 0.5 µg/mL (≈ 1.43 µM) | MIC80 [8]: 0.25 µg/mL (≈ 0.713 µM) | MIC80 [9]: 0.25 µg/mL (≈ 0.713 µM) | MIC80 [10]: 1 µg/mL (≈ 2.85 µM) | MIC80 [11]: 1 µg/mL (≈ 2.85 µM) | MIC80 [12]: 0.5 µg/mL (≈ 1.43 µM) | MIC80 [13]: 0.5 µg/mL (≈ 1.43 µM) | MIC80 [14]: 0.5 µg/mL (≈ 1.43 µM) | MIC80 [15]: 0.5 µg/mL (≈ 1.43 µM)

CCCc1cc(-c2nc(-c3cccc(OC)c3)cs2)ccn1
MIC80 [1]: 0.5 µg/mL (≈ 1.61 µM) | MIC80 [5]: 0.25 µg/mL (≈ 0.805 µM) | MIC80 [6]: 0.25 µg/mL (≈ 0.805 µM) | MIC80 [7]: 0.25 µg/mL (≈ 0.805 µM) | MIC80 [8]: 0.13 µg/mL (≈ 0.419 µM) | MIC80 [9]: 0.13 µg/mL (≈ 0.419 µM) | MIC80 [10]: 0.5 µg/mL (≈ 1.61 µM) | MIC80 [11]: 1 µg/mL (≈ 3.22 µM) | MIC80 [12]: 0.5 µg/mL (≈ 1.61 µM) | MIC80 [13]: 1 µg/mL (≈ 3.22 µM) | MIC80 [14]: 1 µg/mL (≈ 3.22 µM) | MIC80 [15]: 0.5 µg/mL (≈ 1.61 µM)

CCCc1cc(-c2nc(-c3ccc(OCCN4CCOCC4)cc3)cs2)ccn1
MIC80 [1]: 1 µg/mL (≈ 2.44 µM) | solubility [2]: 29.8 µM (≈ 12.2 µg/mL) | MBC [3]: 5.2 µg/mL (≈ 12.7 µM) | Ratio [4]: 2 | MIC80 [5]: 2 µg/mL (≈ 4.88 µM) | MIC80 [6]: 2 µg/mL (≈ 4.88 µM) | MIC80 [7]: 1 µg/mL (≈ 2.44 µM) | MIC80 [8]: 1 µg/mL (≈ 2.44 µM) | MIC80 [9]: 0.5 µg/mL (≈ 1.22 µM) | MIC80 [10]: 1 µg/mL (≈ 2.44 µM) | MIC80 [11]: 1 µg/mL (≈ 2.44 µM) | MIC80 [12]: 1 µg/mL (≈ 2.44 µM) | MIC80 [13]: 1 µg/mL (≈ 2.44 µM) | MIC80 [14]: 2 µg/mL (≈ 4.88 µM) | MIC80 [15]: 1 µg/mL (≈ 2.44 µM)

CCCc1cc(-c2nsc(-c3ccnc(CCC)c3)n2)ccn1
MIC80 [1]: 32 µg/mL (≈ 98.6 µM)

CCCc1cc(-c2nc(-c3ccnc(O[C@H]4CCOC4)c3)cs2)ccn1
MIC80 [1]: 2 µg/mL (≈ 5.44 µM)

CCNc1cc(-c2nc(-c3ccc(Cl)cc3)cs2)ccn1
MIC80 [1]: 8 µg/mL (≈ 25.3 µM)

CCCc1cc(-c2nc(-c3ccccc3OC)cs2)ccn1
MIC80 [1]: 1 µg/mL (≈ 3.22 µM)

CCCc1cc(-c2nc(-c3ccc(Cl)cc3)c(C(=O)OCC)s2)ccn1
MIC80 [1]: > 32 µg/mL

CCCc1cc(-c2nc(-c3ccccc3F)cs2)ccn1
MIC80 [1]: 2 µg/mL (≈ 6.7 µM)

CCCc1cc(-c2ncc(-c3ccnc(OC)c3)s2)ccn1
MIC80 [1]: 32 µg/mL (≈ 103 µM)

CCCc1cc(-c2ncc(-c3ccncc3)s2)ccn1
MIC80 [1]: 32 µg/mL (≈ 114 µM)

CCCc1cc(-c2nc(-c3ccc(OCCOC)cc3)cs2)ccn1
MIC80 [1]: 1 µg/mL (≈ 2.82 µM)

O=c1cc(-c2nc(-c3ccc(Cl)cc3)cs2)cc[nH]1
MIC80 [1]: > 32 µg/mL

NNC(=O)c1ccncc1 [ISONIAZID]
MIC80 [5]: 0.06 µg/mL (≈ 0.438 µM) | MIC80 [6]: 0.06 µg/mL (≈ 0.438 µM) | MIC80 [7]: 0.06 µg/mL (≈ 0.438 µM) | MIC80 [8]: 0.06 µg/mL (≈ 0.438 µM) | MIC80 [9]: 0.06 µg/mL (≈ 0.438 µM) | MIC80 [10]: 0.06 µg/mL (≈ 0.438 µM) | MIC80 [11]: 0.06 µg/mL (≈ 0.438 µM) | MIC80 [12]: 0.06 µg/mL (≈ 0.438 µM) | MIC80 [13]: 0.06 µg/mL (≈ 0.438 µM) | MIC80 [14]: 0.06 µg/mL (≈ 0.438 µM) | MIC80 [15]: 0.06 µg/mL (≈ 0.438 µM)

CCCc1cc(-c2nc(-c3cncnc3)cs2)ccn1
MIC80 [1]: 4 µg/mL (≈ 14.2 µM)

CCCc1cc(-c2nc(-c3ccc(Cl)cc3)c(C(N)=O)s2)ccn1
MIC80 [1]: > 32 µg/mL

CCCc1cc(-c2nc(-c3ccccc3)cs2)ccn1
MIC80 [1]: 1 µg/mL (≈ 3.57 µM)

Clc1ccc(-c2csc(-c3ccnc(C4CC4)c3)n2)cc1
MIC80 [1]: 4 µg/mL (≈ 12.8 µM)

Clc1ccc(-c2csc(-c3ccnc(OCC4CC4)c3)n2)cc1
MIC80 [1]: 2 µg/mL (≈ 5.83 µM)

CCCc1cc(-c2nc(-c3ccc(OC)cc3)cs2)ccn1
MIC80 [1]: 1 µg/mL (≈ 3.22 µM)

COCc1cc(-c2nc(-c3ccc(Cl)cc3)cs2)ccn1
MIC80 [1]: 4 µg/mL (≈ 12.6 µM)

CCCc1cc(-c2nc(-c3ccc(NC(=O)NCC)cc3)cs2)ccn1
MIC80 [1]: 1 µg/mL (≈ 2.73 µM)

CCCc1cc(-c2nc(-c3ccccn3)cs2)ccn1
MIC80 [1]: 4 µg/mL (≈ 14.2 µM)

CCCc1cc(-c2nc(-c3ccnc(OC)c3)cs2)ccn1
MIC80 [1]: 0.2 µg/mL (≈ 0.642 µM)

Clc1ccc(-c2csc(-c3ccnc(N4CCOCC4)c3)n2)cc1
MIC80 [1]: > 32 µg/mL

CCCc1cc(-c2nc(-c3cccnc3)cs2)ccn1
MIC80 [1]: 1.6 µg/mL (≈ 5.69 µM)

CC(=O)N1CCC(c2nc(-c3ccc(Cl)cc3)cs2)CC1
MIC80 [1]: > 32 µg/mL
